Test results as given in patent US10981932B2, “Macrocyclic indole derivatives” (Bayer Aktiengesellschaft, priority 2016, dated 2021).
Counter-ions that a name gives are not always drawn. Like-named read-outs stand apart in the source and are kept apart here.

What was measured:
[1] = biological target: MCL-1 (Homo sapiens, UniProt Q07820); experiment: Protein-protein interaction assay MCL-1/Noxa BH3 peptide (MCL-1 assay), TR-FRET; format: binding; conditions: MBP-MCL-1 / Noxa BH3-derived peptide, median
Chain of MCL-1 (Q07820 whole entry): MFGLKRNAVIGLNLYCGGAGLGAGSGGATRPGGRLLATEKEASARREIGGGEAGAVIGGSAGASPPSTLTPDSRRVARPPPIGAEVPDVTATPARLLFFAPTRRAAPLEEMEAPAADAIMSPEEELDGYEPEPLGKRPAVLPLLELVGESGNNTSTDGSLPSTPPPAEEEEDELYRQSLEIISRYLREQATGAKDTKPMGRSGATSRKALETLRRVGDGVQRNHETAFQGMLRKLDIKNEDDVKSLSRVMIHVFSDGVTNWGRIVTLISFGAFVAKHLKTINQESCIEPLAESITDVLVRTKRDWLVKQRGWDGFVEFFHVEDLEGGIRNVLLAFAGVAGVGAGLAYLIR
In short: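 Displacement of the biotinylated Noxa BH3 peptide from MBP-tagged human MCL-1 (1 nM) is detected by time-resolved FRET. Compounds are tested in duplicate across eleven concentrations up to 20 μM, incubated 1 h at 22 °C and overnight at 4 °C, and IC50 is fitted with a four-parameter equation.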

[2] = test system: SUDHL5; experiment: Induction of caspase-3/7 activity (Caspase-Glo 3/7), SUDHL5; format: cell-based; conditions: caspase-3/7 induction, SUDHL5 cells, 3 h treatment, median
In short: (§1)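 Caspase-Glo 3/7 luminescence, 3 h compound exposure, 37 °C, humidified. Minus medium-only blank. EC50 fit: C0=1, plateau = reference max induction.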

[3] = test system: SUDHL10; experiment: Induction of caspase-3/7 activity (Caspase-Glo 3/7), SUDHL10; format: cell-based; conditions: caspase-3/7 induction, SUDHL10 cells, 3 h treatment, median
In short: as §1

[4] = test system: SUDHL5; experiment: Anti-proliferative effect (CellTiter-Glo, 72 h), SUDHL5; format: cell-based; conditions: Homo sapiens, SU-DHL-5, 72 h, SUDHL5 cells, antiproliferation, 72 h incubation, median, read-out: Antiproli SUDHL5 [M] (median)
In short: (§2)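 CTG luminescence read-out after 72 h compound exposure, 37 °C, humidified. Time-zero reference plate read at plating.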

[5] = test system: SUDHL10; experiment: Anti-proliferative effect (CellTiter-Glo, 72 h), SUDHL10; format: cell-based; conditions: Homo sapiens, SU-DHL10, 72 h, SUDHL10 cells, antiproliferation, 72 h incubation, median, read-out: Antiproli SUDHL10 [M] (median)
In short: as §2

[6] = test system: A2780; experiment: Anti-proliferative effect (CellTiter-Glo, 72 h), A2780; format: cell-based; conditions: A2780 cells, median, read-out: IC50 antiproliferation assay A2780 [M] (median)
In short: as §2

[7] = test system: SUDHL5; experiment: Induction of cytotoxicity (CellTiter-Glo, 5 h), SUDHL5
[8] = test system: SUDHL10; experiment: Induction of cytotoxicity (CellTiter-Glo, 5 h), SUDHL10
[9] = Homo sapiens, SU-DHL-5, 5 h, read-out: Cytotox SUDHL5 [M] (median), SUDHL5 cells, cytotoxicity induction, CellTiter-Glo, 5 h incubation, median
[10] = Homo sapiens, SU-DHL10, 5 h, read-out: Cytotox SUDHL10 [M] (median), SUDHL10 cells, cytotoxicity induction, CellTiter-Glo, 5 h incubation, median
[11] = read-out: Cytotox SUDHL5 [M] (median), SUDHL5 cells, cytotoxicity induction, CellTiter-Glo, 5 h incubation, median
[12] = read-out: Cytotox SUDHL10 [M] (median), SUDHL10 cells, cytotoxicity induction, CellTiter-Glo, 5 h incubation, median

SMILES	IC50 [1] [µM]	EC50 ([2]; Homo sapiens, SU-DHL-5, 3 h) [µM]	EC50 ([3]; Homo sapiens, SU-DHL10, 3 h) [µM]	IC50 [4] [M]	IC50 [5] [M]	IC50 [6] [M]	IC50 [7, 9] [M]	IC50 [8, 10] [M]	EC50 [3] [µM]	IC50 ([6]; Homo sapiens, A2780, 72 h) [M]	IC50 [7, 11] [M]	IC50 [8, 12] [M]	EC50 [2] [µM]
Cc1cc(OCCCc2c(C(=O)O)n3c4c(cccc24)-c2c(C)nn(C)c2COCCC3)cc(C)c1Cl (single isomer, unassigned; enantiomer 1) [Example 014, 1-[3-(4-chloro-3,5-dimethylphenoxy)propyl]-9,11-dimethyl-5,6,8,9-tetrahydro-4H-pyrazolo[4′,3′:8,9][1,5]oxazecino[7,6,5-hi]indole-2-carboxylic acid-N-ethylethanamine Salt (Enantiomer 1)]	0.00995	26.6	> 33	2.23e-05	7.24e-06	> 3.3e-05	2.27e-05	> 3.3e-05	–	–	–	–	–
Cc1nn(C)c2c1-c1cccc3c(CCCOc4ccc(F)c5ccccc45)c(C(=O)O)n(c13)CCCCOC2 (single isomer, unassigned; enantiomer 1) [Example 022, 7-{3-[(4-fluoronaphthalen-1-yl)oxy]propyl}-1,3-dimethyl-1,10,11,12,13,15-hexahydropyrazolo[4′,3′:9,10][1,6]oxazacycloundecino[8,7,6-hi]indole-8-carboxylic Acid-N-ethylethanamine Salt (Enantiomer 1)]	0.00163	4.19	–	7.53e-06	6.52e-06	–	–	–	17.6	2.59e-05	4.08e-06	2.02e-05	–
Cc1ccc2c(CCCOc3cccc4ccccc34)c(C(=O)O)n3c2c1-c1c(C)nn(C)c1COCCC3 (single isomer, unassigned; enantiomer 1) [Example 025, (+)-9,11,12-trimethyl-1-[3-(naphthalen-1-yloxy)propyl]-5,6,8,9-tetrahydro-4H-pyrazolo[4′,3′:8,9][1,5]oxazecino[7,6,5-hi]indole-2-carboxylic acid-N-ethylethanamine Salt (Enantiomer 1)]	0.00184	–	11.1	6.44e-06	4.29e-06	> 3.3e-05	–	–	–	3.04e-05	2.98e-06	8.77e-06	3.04
Cc1ccc2c(CCCOc3cccc4ccccc34)c(C(=O)O)n3c2c1-c1c(C)nn(C)c1COCCCC3 (single isomer, unassigned; enantiomer 1) [Example 028, 1,3,4-trimethyl-7-[3-(naphthalen-1-yloxy)propyl]-1,10,11,12,13,15-hexahydropyrazolo[4′,3′:9,10][1,6]oxazacycloundecino[8,7,6-hi]indole-8-carboxylic acid-N-ethylethanamine Salt (Enantiomer 1)]	0.234	> 33	> 33	2.97e-05	1.81e-05	–	> 3.3e-05	> 3.3e-05	–	1.94e-05	–	–	–
Cc1cc2c(OCCCc3c(C(=O)O)n4c5c(cccc35)-c3c(C)nn(C)c3COCCCC4)cccc2cc1F (single isomer, unassigned; enantiomer 1) [Example 050, 7-{3-[(6-fluoro-7-methylnaphthalen-1-yl)oxy]propyl}-1,3-dimethyl-1,10,11,12,13,15-hexahydropyrazolo[4′,3′:9,10][1,6]oxazacycloundecino[8,7,6-hi]indole-8-carboxylic acid-N-ethylethanamine Salt (Enantiomer 1)]	0.00882	–	18.8	1.41e-05	7.75e-06	–	–	–	–	3.01e-05	4.45e-06	9.61e-06	6.3
